Where “and” joins values, the source holds several entries; their conditions need not be identical. Equal entries are not always repeated. Entries after “also recorded” stand apart in the source; their conditions may differ. Where two headings read alike, the source gives them in different places.
Legend:
[1] = molecular target: dopamine transporter (DAT) (Homo sapiens, UniProt Q01959); experiment: NIMH PDSP receptor binding assay, dopamine transporter
Method: (§1) Displacement by ephenidine in binding assays of a further 45 CNS receptors was performed through the National Institute of Mental Health Psychoactive Drug Screening Program (NIMH PDSP). Briefly ephenidine, dissolved in DMSO, was subject to a primary screen at a concentration of 10 μM (see Suppl. 2 for radioligands used). […] Additional experimental details are available in the NIMH PDSP protocol book ([Roth et al., 2013]).

[2] = system: long-term potentiation (LTP) in CA1; experiment: LTP of fEPSPs in Schaffer collateral-CA1 pathway induced by theta burst stimulation; format: cell-based, rat
Method: (§2) Male Wistar and Sprague-Dawley rats (Crl:Wi; Charles River, UK) aged 3–10 weeks old were killed by dislocation of cervical vertebrae according to Schedule 1 of the United Kingdom (Scientific Procedures) Act of 1986. Brains were rapidly removed and put in artificial cerebrospinal fluid (aCSF) consisting of 124 mM NaCl, 26 mM NaHCO3, 3 mM KCl, 1.4 mM NaH2PO4, 1 mM MgSO4, 2 mM CaCl2, and 10 mM D-glucose and continuously oxygenated with 95% O2 and 5% CO2. Parasagittal brain slices, 400 μm thick, of the hippocampus were removed, stored and placed in a submerged recording chamber at 28–30 °C.
To study the effect of ephenidine on long-term potentiation (LTP), slices were incubated in control aCSF or aCSF containing 10 μM ephenidine for at least 2 h before transferring to the recording chamber, fEPSPs were recorded as above without addition of other agents. After obtaining stable responses, a theta burst stimulation (TBS; [Park et al., 2016]) was applied to the Schaffer collateral pathway and the amplitude of the fEPSP in CA1 monitored for at least a further 40 min.

[3] = molecular target: noradrenaline transporter (NET) (Homo sapiens, UniProt P23975); experiment: NIMH PDSP receptor binding assay, noradrenaline transporter
Method: as §1

[4] = system: NMDA receptor-mediated fEPSP; experiment: Extracellular recording of NMDA receptor-mediated fEPSP in CA1 of hippocampal slices; format: cell-based, rat; details: for inhibition of NMDA receptor mediated fEPSP: after 4 h superfusion; for time-course of reduction of NMDA receptor mediated fEPSP: 1 and 10 μM
Method: as §2
(§3) Recordings of extracellular synaptic activity were made ([Ceolin et al., 2012], [Volianskis et al., 2013]) using a bipolar electrode to deliver stimuli (0.03 Hz) to the Schaffer collateral pathway to evoke field excitatory postsynaptic potentials (fEPSPs) recorded from a glass microelectrode (3–6 MΩ) in the stratum radiatum of area CA1. […] In initial experiments after 30 min of stable control responses, the remaining response was challenged with 30 μM ephenidine. Using this protocol for isolating NMDA-fEPSPs (see Fig. 2A), 1 and 10 μM ephenidine or 1 and 10 μM D-2-amino-5-phosphonopentanoic acid (D-AP5) were added to the perfusate for up to 4 h while recording the amplitude and area of the NMDA-fEPSP on-line using WinLTP ([Anderson and Collingridge, 2007]). Single exponential curves were fitted to show likely half-times and minimum plateau responses achieved with each concentration used. For selectivity experiments, 50 μM picrotoxin and 1 μM CGP 55845 were added to the solution from the beginning of the experiment and 50 μM ephenidine was superfused for 60 min in the absence of other pharmacological agent.

[5] = system: NMDA receptor-mediated EPSCs; experiment: Whole-cell patch clamp of NMDA receptor-mediated EPSCs in CA1 pyramidal cells; format: cell-based, rat
Method: as §2
Whole-cell patch clamp recordings of excitatory postsynaptic currents (EPSCs) were made from CA1 pyramidal cells under visual guidance with IR-DIC optics as described by [Park et al. (2016)]. The recording chamber was maintained at 32 °C. Borosilicate glass pipettes were used with a resistance of 3–5 MΩ. The internal solution comprised (mM): 8 NaCl, 130 CsMeSO3, 10 HEPES, 0.5 EGTA, 4 Mg-ATP, 0.3 Na3-GTP, 5 QX-314 and 0.1 spermine. The pH was adjusted to 7.2–7.3 with CsOH and osmolarity to 285–290 mOsm. Peak amplitude of EPSCs was measured while varying holding voltage from −60 mV to +60 mV and stimulating the Schaffer collateral pathway at a frequency of 0.1 Hz at constant intensity. Five consecutive responses obtained at each holding potential were averaged to plot the current-voltage relationship. Currents through NMDA receptors were pharmacologically isolated using 10 μM NBQX, 50 μM picrotoxin and 20 μM (+)-bicuculline. In initial experiments, MgSO4 was omitted from the bath solution for at least 30 min before patching and replaced with 30 μM ephenidine, 10 μM ketamine, 30 μM D-AP5 or 2 mM MgSO4. Rectification indices were calculated from the EPSC values at +40 mV and −40 mV. In subsequent experiments, slices were incubated in aCSF with no added MgSO4, before transferring to the recording chamber to obtain control current-voltage plots from NMDA-EPSCs as above before adding 2 mM MgSO4 or 30 μM ephenidine for 30 min and repeating the current-voltage protocol. Representative sample traces are shown from typical experiments, and stimulus artifacts blanked for clarity. Data were normalized to the baseline preceding drug application, and are presented as mean ± SEM and compared using one-way ANOVA and level of significance is denoted as *** for p values < 0.001.

[6] = molecular target: sigma 2 binding site (Homo sapiens, UniProt Q5BJF2); experiment: NIMH PDSP receptor binding assay, sigma 2
Method: as §1

[7] = molecular target: sigma 1 binding site (Homo sapiens, UniProt Q99720); experiment: NIMH PDSP receptor binding assay, sigma 1; details: affinity for sigma 1 binding site, NIMH PDSP secondary assay
Method: as §1

[8] = molecular target: MK-801 binding site of the NMDA receptor; experiment: (+)-[3H]-MK-801 displacement binding in whole rat brain homogenate
Method: Termination of reaction was performed via vacuum filtration using a 24 well cell harvester (Brandel, Gaithersburg, MD) over presoaked GF/B glass fiber filters (Brandel, Gaithersburg, MD). Filters were washed with room temperature assay buffer (3 × 5 mL). Trapped tritium was measured via liquid scintillation counting, using a Beckman LS 6500 multipurpose scintillation counter (BeckmanCoulter, USA) at 57% efficiency. IC50 values were determined in Graphpad Prism 5.0 using non-linear regression with log-concentration plotted against percent specific binding. […] Ki values were calculated using the equation of [Cheng and Prusoff (1973)]. […] Protein concentration was determined via the Bradford method using Coomassie protein assay reagent (Sigma, USA) with rat albumin (Sigma, USA) as standard. Experiments were performed in duplicate and repeated three or four times.

[9] = system: remaining 41 CNS receptors (Supplement 2); experiment: NIMH PDSP primary binding screen at 10 μM, remaining 41 receptors
Method: as §1

[10] = system: AMPA receptor-mediated fEPSP; experiment: Extracellular recording of AMPA receptor-mediated fEPSP in CA1 of hippocampal slices; format: cell-based, rat
Method: as §2
as §3, with “Single exponential curves were fitted to show likely half-times and minimum plateau responses achieved with each concentration used. For selectivity experiments, 50 μM picrotoxin and 1 μM CGP 55845 were added to the solution from the beginning of the experiment and 50 μM ephenidine was superfused for 60 min in the absence of other pharmacological agent.” left out

[11] = system: PCP binding site; parameters: method as in Thurkauf et al., 1989; details: ref Thurkauf et al., 1989; cited from earlier work
[12] = molecular target: MK-801 binding site of the NMDA receptor; parameters: method as in Wallach et al., 2016; details: same assay, ref Wallach et al., 2016, cited from earlier work; for Ki: read-out: Ki, (+)-[3H]-MK-801 displacement

Sequence of sigma 1 binding site (Q99720 whole entry): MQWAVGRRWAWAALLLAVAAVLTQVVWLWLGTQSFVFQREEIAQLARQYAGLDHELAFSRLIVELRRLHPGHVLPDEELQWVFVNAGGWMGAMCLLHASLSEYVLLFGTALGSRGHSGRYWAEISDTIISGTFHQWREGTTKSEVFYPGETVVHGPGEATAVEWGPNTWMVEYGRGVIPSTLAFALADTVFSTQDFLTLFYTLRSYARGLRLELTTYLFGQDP
Sequence of sigma 2 binding site (Q5BJF2 whole entry): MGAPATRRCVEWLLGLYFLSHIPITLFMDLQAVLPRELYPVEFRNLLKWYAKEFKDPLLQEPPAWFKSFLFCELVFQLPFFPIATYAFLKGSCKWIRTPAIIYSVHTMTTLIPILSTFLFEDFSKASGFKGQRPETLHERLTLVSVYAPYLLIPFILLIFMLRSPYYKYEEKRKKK
Sequence of noradrenaline transporter (NET) (P23975 whole entry): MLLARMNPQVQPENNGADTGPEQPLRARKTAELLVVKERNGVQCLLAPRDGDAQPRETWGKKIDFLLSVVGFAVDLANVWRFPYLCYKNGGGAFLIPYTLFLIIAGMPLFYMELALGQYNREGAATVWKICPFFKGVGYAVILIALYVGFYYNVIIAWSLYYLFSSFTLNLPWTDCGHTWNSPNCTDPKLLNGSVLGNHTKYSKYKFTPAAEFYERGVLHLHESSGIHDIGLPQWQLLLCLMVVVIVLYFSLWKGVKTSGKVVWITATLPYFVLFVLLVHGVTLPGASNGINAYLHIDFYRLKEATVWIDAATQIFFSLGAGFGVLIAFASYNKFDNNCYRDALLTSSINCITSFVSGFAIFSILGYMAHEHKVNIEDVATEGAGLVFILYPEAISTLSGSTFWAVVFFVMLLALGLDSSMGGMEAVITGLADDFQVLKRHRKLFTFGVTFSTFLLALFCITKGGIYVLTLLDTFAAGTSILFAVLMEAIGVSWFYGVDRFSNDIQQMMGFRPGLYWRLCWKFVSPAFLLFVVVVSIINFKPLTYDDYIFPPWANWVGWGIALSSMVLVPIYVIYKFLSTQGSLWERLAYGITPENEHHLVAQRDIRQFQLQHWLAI
Sequence of dopamine transporter (DAT) (Q01959 whole entry, species assumed): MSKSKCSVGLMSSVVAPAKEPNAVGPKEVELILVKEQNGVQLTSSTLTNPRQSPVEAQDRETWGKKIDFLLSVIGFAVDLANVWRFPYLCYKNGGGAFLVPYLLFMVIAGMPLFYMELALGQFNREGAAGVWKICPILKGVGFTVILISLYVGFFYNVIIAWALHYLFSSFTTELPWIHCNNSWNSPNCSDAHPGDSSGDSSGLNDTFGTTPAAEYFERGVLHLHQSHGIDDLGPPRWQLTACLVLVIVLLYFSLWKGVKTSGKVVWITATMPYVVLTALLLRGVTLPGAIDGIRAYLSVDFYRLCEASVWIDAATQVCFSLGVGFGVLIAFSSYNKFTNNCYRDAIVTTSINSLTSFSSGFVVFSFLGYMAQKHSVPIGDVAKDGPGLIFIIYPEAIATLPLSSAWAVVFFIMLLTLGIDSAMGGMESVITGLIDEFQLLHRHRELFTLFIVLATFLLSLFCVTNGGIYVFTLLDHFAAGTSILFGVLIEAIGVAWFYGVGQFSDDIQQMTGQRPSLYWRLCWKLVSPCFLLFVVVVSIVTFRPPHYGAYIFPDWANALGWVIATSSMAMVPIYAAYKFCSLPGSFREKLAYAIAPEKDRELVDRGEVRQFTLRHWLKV

## CCNC(Cc1ccccc1)c1ccccc1 (stereo not shown) [ephenidine, N-Ethyl-1,2-diphenylethanamine]
[1]
  Ki: 379 nM
[2]; 10 μM
  effect on induction of LTP: blocked the induction of long term potentiation (LTP); also recorded: completely blocked the induction of LTP
[2]; 30 μM
  effect on induction of LTP: completely blocked the induction of LTP
[3]
  Ki: 841 nM
[4]; 1 μM
  inhibition of NMDA receptor mediated fEPSP: 25%
[4]; 10 μM
  inhibition of NMDA receptor mediated fEPSP: near maximal inhibition; also recorded: near maximal effect
[4]; 30 μM
  effect on NMDA receptor mediated fEPSP: slowly reduced
[5]; 10 μM
  block of NMDA receptor-mediated EPSCs: blocked NMDA receptor-mediated EPSCs in a highly voltage-dependent manner
[5]; 30 μM ephenidine, no added Mg2+
  rectification index (RI; +40 mV/−40 mV): 3.6 ± 0.3
[5]; 30 μM, no added Mg2+
  effect on NMDA-EPSC current-voltage relationship: reduction of inward current at negative holding potentials
[5]; 30 μM, no added Mg2+, holding potential +40 mV
  mean NMDA-EPSC current at +40 mV: 133 ± 12 pA
[5]; 30 μM, no added Mg2+, holding potential −40 mV
  mean NMDA-EPSC current at −40 mV: −48 ± 8 pA
[6]
  Ki: 721 nM
[7]
  Ki: 629 nM and 628 nM
[8]; 1 nM (+)-[3H]-MK-801
  IC50: 104 ± 5.9 nM
[8]; 1 nM (+)-[3H]-MK-801, Cheng-Prusoff
  Ki: 66 nM and 66.4 nM
[9]
  displacement in primary screen: less than 50%
[10]; 50 μM, 1 h superfusion
  effect on AMPA receptor mediated fEPSP (peak amplitude): lack of effect; also recorded: did not affect; also recorded: no significant reduction
[11]
  affinity for the PCP binding site: 257 nM

## CNC1(c2ccccc2Cl)CCCCC1=O (stereo not shown) [ketamine]
[4]
  time-course of reduction of NMDA receptor mediated fEPSP: slower reduction
[5]; 10 μM, no added Mg2+
  rectification index (RI; +40 mV/−40 mV): 2.0 ± 0.2
[12]; listed as Ketamine
  Ki: 324 ± 19.2 nM
[12]; read-out: IC50, (+)-[3H]-MK-801 displacement
  IC50: 508 ± 30.1 nM
[12]
  Ki: 324 ± 19 nM

## N[C@H](CCCP(=O)(O)O)C(=O)O [D-AP5, D-2-amino-5-phosphonopentanoic acid, reference compound]
[4]
  time-course of reduction of NMDA receptor mediated fEPSP: rapid reduction
[5]; 30 μM D-AP5, no added Mg2+
  rectification index (RI; +40 mV/−40 mV): 0.8 ± 0.01
[5]; 30 μM, no added Mg2+
  effect on NMDA-EPSC current-voltage relationship: reduced both inward and outward current

## NS(=O)(=O)c1cccc2c1c([N+](=O)[O-])cc1nc(O)c(O)nc12 [NBQX, reference compound]
[10]; 3 μM
  effect on AMPA receptor mediated fEPSP: rapid block of the remaining fEPSP

Source: PMC5084681, “Ephenidine: A new psychoactive agent with ketamine-like NMDA receptor antagonist properties” (Neuropharmacology, 2017)
